# Molecular target: T1, Alkaline phosphatase, tissue-nonspecific isozyme (Homo sapiens, UniProt P05186)
# T1 sequence (P05186 whole entry): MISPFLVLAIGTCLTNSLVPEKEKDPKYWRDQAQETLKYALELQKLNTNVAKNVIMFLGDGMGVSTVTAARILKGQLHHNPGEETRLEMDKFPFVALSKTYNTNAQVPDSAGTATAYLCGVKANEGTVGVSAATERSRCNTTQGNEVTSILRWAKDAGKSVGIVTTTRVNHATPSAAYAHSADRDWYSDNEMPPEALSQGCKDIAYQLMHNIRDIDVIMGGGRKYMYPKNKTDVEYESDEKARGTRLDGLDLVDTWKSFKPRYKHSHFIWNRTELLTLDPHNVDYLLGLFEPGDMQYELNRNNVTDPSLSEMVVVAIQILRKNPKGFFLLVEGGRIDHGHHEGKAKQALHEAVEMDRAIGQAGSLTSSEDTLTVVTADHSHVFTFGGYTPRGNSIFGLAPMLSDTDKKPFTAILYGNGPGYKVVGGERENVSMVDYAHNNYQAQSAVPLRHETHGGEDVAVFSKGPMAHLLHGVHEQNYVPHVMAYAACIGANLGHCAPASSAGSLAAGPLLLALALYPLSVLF
# Assay: human TNAP enzyme inhibitors, biochemical, luminescent (AID 518)
row,SMILES,IC50
1,COc1ccc(-c2[nH]nc3oc(=O)cc(C)c23)cc1,1.35 µM
2,COC(=O)c1cc(-c2ccc(Br)cc2)n[nH]1,1.14 µM
3,c1ccc(-c2[nH]nc3ccccc23)cc1,3.72 µM
4,CC(=N)C(C#N)C(=O)CSc1nnc(-c2ccccc2Br)[nH]1 (configuration not stated),1.73 µM
5,O=C(Nc1nnc(C2CCCCC2)[nH]1)C1CCCCC1,> 100 µM
6,CC1(C)CC(=O)c2c(n[nH]c2Cc2ccccc2)C1,1.83 µM
7,O=C(O)c1cc(-c2ccc(Cl)cc2)n[nH]1,2.67 µM
8,"Brc1ccc(-c2nnc3sc(CNCc4ccc5c(c4)OCO5)cn23)cc1 [1-(1,3-benzodioxol-5-yl)-N-[[3-(4-bromophenyl)-6-thiazolo[2,3-c][1,2,4]triazolyl]methyl]methanamine]",> 100 µM
9,O=C(Cc1ccc(-n2cccc2)cc1)N1CCN(c2ccccc2F)CC1 [1-(2-fluorophenyl)-4-{[4-(1H-pyrrol-1-yl)phenyl]acetyl}piperazine],> 100 µM
10,"Cc1ccc2c(c1)-c1c(cnn1CC(=O)N1CCCN(Cc3ccccc3F)C1)CO2 [1-[3-(2-fluorobenzyl)hexahydropyrimidin-1-yl]-2-(8-methyl-4H-chromeno[4,3-c]pyrazol-1-yl)ethanone]",> 100 µM
11,"O=c1c(=Cc2ccco2)sc2nc(-c3ccccc3Br)nn12 [2-(2-bromophenyl)-5-(2-furanylmethylidene)-6-thiazolo[3,2-b][1,2,4]triazolone]",> 100 µM
12,"Cc1ccc(-n2c(Cc3cccn3C)nnc2SCC(=O)Nc2nnc(C)s2)cc1 [2-({4-(4-methylphenyl)-5-[(1-methyl-1H-pyrrol-2-yl)methyl]-4H-1,2,4-triazol-3-yl}thio)-N-(5-methyl-1,3,4-thiadiazol-2-yl)acetamide]",> 100 µM
13,"CCc1ccc(OCc2nc(-c3ccccn3)no2)c(Br)c1 [2-{5-[(2-bromo-4-ethylphenoxy)methyl]-1,2,4-oxadiazol-3-yl}pyridine]",> 100 µM
14,CCOC(=O)N1CCN(C(=O)c2ccc(CS(=O)(=O)c3ccccc3OC)o2)CC1 [4-[5-[(2-methoxyphenyl)sulfonylmethyl]-2-furoyl]piperazine-1-carboxylic acid ethyl ester],> 100 µM
15,"Cc1ccsc1C=c1sc2ncnn2c1=O [5-[(3-methyl-2-thienyl)methylene][1,3]thiazolo[3,2-b][1,2,4]triazol-6(5H)-one]",11.7 µM
16,"COc1cc(CSc2nnc[nH]2)c(OC)cc1CSc1nnc[nH]1 [5-[[2,5-dimethoxy-4-[(1H-1,2,4-triazol-5-ylthio)methyl]phenyl]methylthio]-1H-1,2,4-triazole]",1.66 µM
17,"COCc1n[nH]c2c1C(c1cc(OC)c(O)c(OC)c1)C(C#N)C(=N)O2 (configuration not stated) [6-azanyl-4-(3,5-dimethoxy-4-oxidanyl-phenyl)-3-(methoxymethyl)-2,4-dihydropyrano[2,3-c]pyrazole-5-carbonitrile]",5.25 µM
18,"COc1ccc2c(c1)CCc1c-2n[nH]c1C(=O)O [7-methoxy-4,5-dihydro-2H-benzo[g]indazole-3-carboxylic acid]",2.62 µM
19,"O=C(C1CCN(S(=O)(=O)N2CCC3(CC2)OCCO3)CC1)N1CCN(Cc2ccccc2)CC1 [(4-benzylpiperazin-1-yl)-[1-(1,4-dioxa-8-azaspiro[4.5]decan-8-ylsulfonyl)piperidin-4-yl]methanone]",> 100 µM
20,Cc1cc(=O)oc2n[nH]c(-c3ccccc3)c12 [MLS-0013971.0001],1.23 µM
21,"CCOC(=O)c1sc(NC(=O)CSc2nnc(-c3ccccc3)[nH]2)c(C#N)c1C [ethyl 4-cyano-3-methyl-5-[[2-[(5-phenyl-1H-1,2,4-triazol-3-yl)sulfanyl]acetyl]amino]thiophene-2-carboxylate]",5.39 µM
22,COC(=O)c1cc(-c2ccccc2)n[nH]1 [methyl 3-phenyl-1H-pyrazole-5-carboxylate],1.24 µM

# Second part, the compound after the results:
row,IC50,SMILES
1,> 100 µM,O=C(Cn1c(-c2ccccc2)noc1=O)Nc1ccc(N2CCCCCC2)cc1 [MLS000027331]
2,15.8 µM,Cn1ncc2c1ncn1nc(CCc3ccccc3)nc21 [MLS000040759]
3,> 100 µM,COc1ccc(CNC(=O)C(C)NC(=O)c2cc3ccccc3o2)cc1 (configuration not stated) [MLS000047147]
4,> 100 µM,c1ccc(-n2ncc3c2ncn2cnnc32)cc1 [MLS000048783]
5,7.92 µM,Cc1ccc(-n2ncc3c2ncn2c(C)nnc32)cc1C [MLS000082333]
6,> 100 µM,CCCc1nc2c3cnn(-c4cccc(Cl)c4)c3ncn2n1 [MLS000083263]
7,> 100 µM,OCc1nnn(-c2cccc(C(F)(F)F)c2)c1CO [MLS000090420]
8,> 100 µM,CCN(CC)S(=O)(=O)c1ccc2c(c1)c(=O)c(C(=O)N1CCOCC1)cn2C [MLS000092367]
9,0.33 µM,Oc1c2c(c(O)n1-c1nnc(Cc3ccccc3)[nH]1)CC=CC2 [MLS000100008]
10,> 100 µM,Cn1c(NC(=O)CC(C)(C)C)cc(=O)n(C)c1=O [MLS000103608]
11,0.82 µM,CCCSc1nnc(NC(C)=O)[nH]1 [MLS000114796]
12,> 100 µM,Cc1cc(NC(=O)c2noc3c2CCc2ccccc2-3)n(-c2ccccc2)n1 [MLS000116423]
13,> 100 µM,CCCCNC(=O)c1ccc2nc(-c3ccco3)c(-c3ccco3)nc2c1 [MLS000119995]
14,9.5 µM,CC1(C)Cc2c(sc3nc4n(c(=N)c23)CCCCC4)CO1 [SMR000039131]
15,1.17 µM,COC(=O)c1cc(-c2c[nH]c3ccccc23)[nH]n1 [SMR000079439]

# Reference: BindingDB's records for doi:10.7270/Q2SX6BMJ (Burnham Center for Chemical Genomics, 2008)
